Measured values published in patent US9826761B2, “Compositions and methods for mitigating dietary sulfur in animals” (SarTec Corporation, priority 2008, dated 2017).

Legend:
[1] = Titration of approx. 200 mM sulfide in fresh rumen fluid with 1 M metal chloride, silver/sulfide electrode; design: species or system Holstein cows; details: for mVolts (Negative Value): ~200 mM sulfide, fresh rumen fluid
Procedure: Fresh undiluted rumen fluid was obtained from rumen fistulated Holstein cows. 1.5 ml of a saturated solution of Na2S in water (approximately 2.7 M) was added to 18.5 ml of the rumen fluid. Sodium sulfide solutions were quantified by titration using a silver/sulfide electrode (Orion, Ion Plus Silver/Sulfide 9616BNWP) and a commercial lead standard (0.1 M Pb^2+, Orion 948206). The final concentration for sulfide ion in the rumen fluid was approximately 200 mM. This solution was then titrated with a 1 M solution of MnCl2 in water. The progress of the reaction was followed using the silver/sulfide electrode.
Fresh undiluted rumen fluid was obtained from rumen fistulated Holstein cows. 1.5 ml of saturated solution of Na2S in water (approximately 2.7 M) was added to 18.5 ml of the rumen fluid. The final concentration of sulfide ion in the rumen fluid was approximately 200 mM. This solution was then titrated with a 1 M solution of FeCl2 in water. The progress of the reaction was followed using the same silver/sulfide electrode set-up described above (Orion, Ion Plus Silver/Sulfide 9616BNWP).
Data taken from Examples 1 and 2 above were plotted together in order to gauge the relative efficacy of MnCl2 versus FeCl2 in removing sulfide ion from rumen fluid.

[2] = Titration of approx. 200 mM sulfide in 24 hour old rumen fluid with 1 M MnCl2, BaCl2 or CaCl2, silver/sulfide electrode; design: species or system Holstein cows
Procedure: 24 hour old undiluted rumen fluid from rumen fistulated Holstein cows was obtained. 4 ml of Na2S in water (approximately 1 M) was added to 16 ml of the rumen fluid. The final concentration of sulfide ion in the rumen fluid was approximately 200 mM. […] The progress of the reaction was followed using the same silver/sulfide electrode set-up described above (Orion, Ion Plus Silver/Sulfide 9616BNWP).

[3] = Effect of MnCl2 supplementation on cattle (feedlot trial); type: in vivo, Angus based feeder calves; details: feeder calves, approx. 0.55 g/head/day MnCl2 and 10.0 g/head/day FeCl2 in supplement with Yucca extract
Source text: In this example, forty-six Angus based feeder calves were blocked by sex (heifers and steers) and assigned within block to one of two treatments. One group (one pen of steers and one pen of heifers) was fed a commercially available feed additive including Yucca extract ([…] Corporation, Anoka, Minn.) mixed into the feedlot supplement. […] The supplement also contained minerals, vitamins, […]), and carrier feed products including corn, barley sprouts, and distillers grains. […] The results (DMI=dry matter intake, ADG=average daily gain) are shown below in Table 5.

[4] = Precipitating activity: rumen fluid containing manganese compound titrated with 1.0M Na2S, silver/sulfide electrode; design: species or system Holstein cows; details: for mVolts: 200 mM MnCl2 in rumen fluid
Procedure: Next, 0.28 g of MnO(II) was placed in a 100 ml beaker and 20 ml of rumen fluid was added. Then 0.17 g of MnO2(IV) was placed in 100 ml beaker and 20 ml of rumen fluid was added. Each of these compositions, in addition to a rumen fluid control, was then titrated with a 1.0M solution of Na2S. The progress of the reaction was followed using the same silver/sulfide electrode set-up described above (Orion, Ion Plus Silver/Sulfide 9616BNWP).

## manganese (II) chloride [MnCl2]
[1]; addition of 1 M titrant to ~200 mM sulfide in fresh rumen fluid
  concentration of sulfide ion within the rumen fluid: effective to reduce the concentration of sulfide ion
[1]; titrant volume 0.0 of 1M MnCl2
  mVolts (Negative Value): 952.6 mVolts
[1]; titrant volume 0.3 of 1M MnCl2
  mVolts (Negative Value): 950.5 mVolts
[1]; titrant volume 0.5 of 1M MnCl2
  mVolts (Negative Value): 947.7 mVolts
[1]; titrant volume 0.7 of 1M MnCl2
  mVolts (Negative Value): 947.8 mVolts
[1]; titrant volume 0.9 of 1M MnCl2
  mVolts (Negative Value): 940.4 mVolts
[1]; titrant volume 1.1 of 1M MnCl2
  mVolts (Negative Value): 929.7 mVolts
[1]; titrant volume 1.4 of 1M MnCl2
  mVolts (Negative Value): 918.4 mVolts
[1]; titrant volume 1.6 of 1M MnCl2
  mVolts (Negative Value): 899.9 mVolts
[1]; titrant volume 1.8 of 1M MnCl2
  mVolts (Negative Value): 882.2 mVolts
[1]; titrant volume 2.0 of 1M MnCl2
  mVolts (Negative Value): 861.5 mVolts
[1]; titrant volume 2.3 of 1M MnCl2
  mVolts (Negative Value): 850.2 mVolts
[1]; titrant volume 2.5 of 1M MnCl2
  mVolts (Negative Value): 830.5 mVolts
[1]; titrant volume 2.7 of 1M MnCl2
  mVolts (Negative Value): 808.9 mVolts
[1]; titrant volume 2.9 of 1M MnCl2
  mVolts (Negative Value): 777.1 mVolts
[1]; titrant volume 3.2 of 1M MnCl2
  mVolts (Negative Value): 735.7 mVolts
[1]; titrant volume 3.4 of 1M MnCl2
  mVolts (Negative Value): 702.0 mVolts
[1]; titrant volume 3.6 of 1M MnCl2
  mVolts (Negative Value): 686.7 mVolts
[1]; titrant volume 3.9 of 1M MnCl2
  mVolts (Negative Value): 678.2 mVolts
[1]; titrant volume 4.1 of 1M MnCl2
  mVolts (Negative Value): 672.4 mVolts
[1]; titrant volume 4.3 of 1M MnCl2
  mVolts (Negative Value): 667.8 mVolts
[1]; titrant volume 4.5 of 1M MnCl2
  mVolts (Negative Value): 664.4 mVolts
[1]; titrant volume 4.7 of 1M MnCl2
  mVolts (Negative Value): 661.8 mVolts
[1]; titrant volume 4.9 of 1M MnCl2
  mVolts (Negative Value): 658.9 mVolts
[1]; titrant volume 5.2 of 1M MnCl2
  mVolts (Negative Value): 656.6 mVolts
[1]; titrant volume 5.4 of 1M MnCl2
  mVolts (Negative Value): 654.6 mVolts
[1]; titrant volume 6.0 of 1M MnCl2
  mVolts (Negative Value): 649.8 mVolts
[2]; Volume 0.0 of 1.0M MnCl2, ~200 mM sulfide
  mVolts: 934.0 mVolts
[2]; Volume 0.2 of 1.0M MnCl2, ~200 mM sulfide
  mVolts: 931.7 mVolts
[2]; Volume 0.4 of 1.0M MnCl2, ~200 mM sulfide
  mVolts: 931.6 mVolts
[2]; Volume 0.6 of 1.0M MnCl2, ~200 mM sulfide
  mVolts: 930.7 mVolts
[2]; Volume 0.8 of 1.0M MnCl2, ~200 mM sulfide
  mVolts: 929.4 mVolts
[2]; Volume 1.0 of 1.0M MnCl2, ~200 mM sulfide
  mVolts: 926.6 mVolts
[2]; Volume 1.2 of 1.0M MnCl2, ~200 mM sulfide
  mVolts: 921.4 mVolts
[2]; Volume 1.4 of 1.0M MnCl2, ~200 mM sulfide
  mVolts: 906.6 mVolts
[2]; Volume 1.7 of 1.0M MnCl2, ~200 mM sulfide
  mVolts: 903.0 mVolts
[2]; Volume 1.8 of 1.0M MnCl2, ~200 mM sulfide
  mVolts: 863.5 mVolts
[2]; Volume 1.9 of 1.0M MnCl2, ~200 mM sulfide
  mVolts: 855.2 mVolts
[2]; Volume 2.0 of 1.0M MnCl2, ~200 mM sulfide
  mVolts: 848.1 mVolts
[2]; Volume 2.1 of 1.0M MnCl2, ~200 mM sulfide
  mVolts: 841.7 mVolts
[2]; Volume 2.2 of 1.0M MnCl2, ~200 mM sulfide
  mVolts: 834.5 mVolts
[2]; Volume 2.3 of 1.0M MnCl2, ~200 mM sulfide
  mVolts: 829.2 mVolts
[2]; Volume 2.4 of 1.0M MnCl2, ~200 mM sulfide
  mVolts: 823.9 mVolts
[2]; Volume 2.5 of 1.0M MnCl2, ~200 mM sulfide
  mVolts: 817.9 mVolts
[2]; Volume 2.7 of 1.0M MnCl2, ~200 mM sulfide
  mVolts: 811.4 mVolts
[2]; Volume 2.8 of 1.0M MnCl2, ~200 mM sulfide
  mVolts: 804.0 mVolts
[2]; Volume 2.9 of 1.0M MnCl2, ~200 mM sulfide
  mVolts: 794.9 mVolts
[2]; Volume 3.0 of 1.0M MnCl2, ~200 mM sulfide
  mVolts: 783.1 mVolts
[2]; Volume 3.1 of 1.0M MnCl2, ~200 mM sulfide
  mVolts: 767.9 mVolts
[2]; Volume 3.3 of 1.0M MnCl2, ~200 mM sulfide
  mVolts: 746.6 mVolts
[2]; Volume 3.4 of 1.0M MnCl2, ~200 mM sulfide
  mVolts: 733.1 mVolts
[2]; Volume 3.5 of 1.0M MnCl2, ~200 mM sulfide
  mVolts: 718.3 mVolts
[2]; Volume 3.6 of 1.0M MnCl2, ~200 mM sulfide
  mVolts: 704.2 mVolts
[2]; Volume 3.7 of 1.0M MnCl2, ~200 mM sulfide
  mVolts: 694.2 mVolts
[2]; Volume 3.8 of 1.0M MnCl2, ~200 mM sulfide
  mVolts: 687.0 mVolts
[2]; Volume 3.9 of 1.0M MnCl2, ~200 mM sulfide
  mVolts: 679.7 mVolts
[2]; Volume 4.0 of 1.0M MnCl2, ~200 mM sulfide
  mVolts: 674.1 mVolts
[2]; Volume 4.2 of 1.0M MnCl2, ~200 mM sulfide
  mVolts: 670.1 mVolts
[2]; Volume 4.4 of 1.0M MnCl2, ~200 mM sulfide
  mVolts: 665.4 mVolts
[2]; Volume 4.6 of 1.0M MnCl2, ~200 mM sulfide
  mVolts: 661.8 mVolts
[2]; Volume 5.0 of 1.0M MnCl2, ~200 mM sulfide
  mVolts: 657.1 mVolts
[2]; ~200 mM sulfide
  total sulfide ion concentrations in the rumen fluid versus BaCl2 and CaCl2: substantially lower total sulfide ion concentrations
[3]
  ADG (average daily gain): 3.58 lb/head/day
  DMI (dry matter intake): 23.18 lb/head/day
  End wt.: 1147.5 lb
  Feed Efficiency (DM/gain): 6.48
[4]; Vol 1M Na2S 0.0
  mVolts: 533.2 mVolts
[4]; Vol 1M Na2S 0.3
  mVolts: 617.3 mVolts
[4]; Vol 1M Na2S 0.5
  mVolts: 631.2 mVolts
[4]; Vol 1M Na2S 0.8
  mVolts: 640.0 mVolts
[4]; Vol 1M Na2S 1.1
  mVolts: 641.8 mVolts
[4]; Vol 1M Na2S 1.4
  mVolts: 647.5 mVolts
[4]; Vol 1M Na2S 1.7
  mVolts: 649.0 mVolts
[4]; Vol 1M Na2S 2.1
  mVolts: 652.1 mVolts
[4]; Vol 1M Na2S 2.3
  mVolts: 653.0 mVolts
[4]; Vol 1M Na2S 2.6
  mVolts: 652.6 mVolts
[4]; Vol 1M Na2S 2.9
  mVolts: 658.0 mVolts
[4]; Vol 1M Na2S 3.2
  mVolts: 667.2 mVolts
[4]; Vol 1M Na2S 3.4
  mVolts: 678.8 mVolts
[4]; Vol 1M Na2S 3.5
  mVolts: 691.3 mVolts
[4]; Vol 1M Na2S 3.6
  mVolts: 710.6 mVolts
[4]; Vol 1M Na2S 3.8
  mVolts: 742.0 mVolts
[4]; Vol 1M Na2S 3.9
  mVolts: 770.9 mVolts
[4]; Vol 1M Na2S 4.0
  mVolts: 783.4 mVolts
[4]; Vol 1M Na2S 4.1
  mVolts: 804.1 mVolts
[4]; Vol 1M Na2S 4.2
  mVolts: 820.2 mVolts
[4]; Vol 1M Na2S 4.3
  mVolts: 837.8 mVolts
[4]; Vol 1M Na2S 4.4
  mVolts: 851.7 mVolts
[4]; Vol 1M Na2S 4.5
  mVolts: 863.4 mVolts
[4]; Vol 1M Na2S 4.7
  mVolts: 877.0 mVolts
[4]; Vol 1M Na2S 4.8
  mVolts: 883.6 mVolts
[4]; Vol 1M Na2S 4.9
  mVolts: 888.2 mVolts
[4]; Vol 1M Na2S 5.0
  mVolts: 893.2 mVolts
[4]; rumen fluid titrated with 1.0M Na2S
  precipitating sulfide ion versus MnO(II) and MnO2(IV): much more effective in precipitating sulfide ion
